These results are taken from patent US5849560A, “Proteases causing degradation of amyloid β-protein precursor” (priority 1993, dated 1998).

The target of assay [1] is T1, "Met cut" metalloprotease (AD metalloprotease) purified from AD brain homogenate (Homo sapiens, UniProt P52888).
T1 construct: isolate and purify an AD metalloprotease from AD brain homogenate; from tissue; host or cells: brain of Alzheimer's disease patients
As to the kind of experiment: Effect of additives on synthetic peptide substrate (P1) degrading activity of the purified Met cut metalloprotease. Particulars: for remaining activity at 150 µM: reagent conc. 0.15 mM; for effect on metalloprotease activity (in words): concentrations as in Table II, divalent ions at 2 mM; for remaining activity at 140 µM: reagent conc. 0.14 mM; for remaining activity at 5000 µM: reagent conc. 5.0 mM; for remaining activity at 200 µM: reagent conc. 0.2 mM. The format is biochemical. The method, then:
The different protease fractions are monitored for proteolytic activity against iodinated peptide "P1". Incubations are carried out at 37° C. in 50 mM Tris-Cl, pH 7.4, in the presence of 1 mM MgCl2 +1 mM DTT. The proteolytic products are separated by TLC on cellulose microcrystalline plates, using n-butanol:pyridine:acetic acid:water, 15:10:3:12 (v/v), as a solvent, followed by autoradiography. […] ID NO. 1] to His-Ser-Glu-Val-Lys-Met [SEQ, ID NO. 2] were quantified with a Molecular Dynamics ImageQuant™ v3.0 scanning densitometer or a Bioscan system 200 imaging scanner. […] One unit of Met cut metalloprotease activity under these conditions was defined as converting 1 μg of P1 to His-Ser-Glu-Val-Lys-Met [SEQ. ID NO. 2] in 1 min.
Referring now to Table II, the effects of various additives on the activity degrading the synthetic substrate (P1) were examined. The metalloprotease sample as incubated with the appropriate amount of additive and assayed for remaining activity, as described above. Control reactions with no reagent, or containing only the solvent of the reagent were always included. Reactions were allowed to proceed for 45 min at 4° C., except E-64 which was incubated for 15 or 30 min (b and c respectively) and iodoacetamide was incubated at 37° C. for 30 min.
Stock solutions of phenylmethylsulfonyl fluoride (PMSF)", E-64, 1,10 phenanthroline, calpain inhibitor, Z-Phe-Phe-CH2 F (Enzyme Systems Products, Livermore, Calif.) were dissolved in ethanol. […] ZINCOV (Calbiochem, Calif.) and phosphoramidon (Sigma, USA), were also dissolved in water. Pepstatin A was dissolved in methanol. The susceptibility of the protease activity to various divalent cations was determined by including metals at a final concentration of 2 mM in the assay reaction mixture.

The subject of assay [2] is Ca2+ activated serine protease (serine AD proteolytic factor) from AD brain. As to the kind of experiment: Peptide degradation assay (125I-P1, TLC) with the serine AD proteolytic factor and inhibitors. The assay is classed as biochemical, human.
Where [3] appears, read: reagent conc. 1.0 mM, 45 min at 4° C.
[4] abbreviates: concentrations as in Table II (iodoacetamide 8.0 mM, leupeptin 0.2 mM), read-out: partial inhibitory effect on the protease.

A word on the remaining activity: it is the activity still measured, relative to the control.

Non-standard residues stand in square brackets, D forms with d. Residues, ends and D or L forms follow the SMILES beside them. *: point of attachment. Sta = CC(C)C[C@H](N)[C@@H](O)CC(=O)O; Isovaleryl = CC(C)CC(=O)*; Cbz = O=C(OCc1ccccc1)*; CH2F = FC*

T1 sequence (P52888 whole entry): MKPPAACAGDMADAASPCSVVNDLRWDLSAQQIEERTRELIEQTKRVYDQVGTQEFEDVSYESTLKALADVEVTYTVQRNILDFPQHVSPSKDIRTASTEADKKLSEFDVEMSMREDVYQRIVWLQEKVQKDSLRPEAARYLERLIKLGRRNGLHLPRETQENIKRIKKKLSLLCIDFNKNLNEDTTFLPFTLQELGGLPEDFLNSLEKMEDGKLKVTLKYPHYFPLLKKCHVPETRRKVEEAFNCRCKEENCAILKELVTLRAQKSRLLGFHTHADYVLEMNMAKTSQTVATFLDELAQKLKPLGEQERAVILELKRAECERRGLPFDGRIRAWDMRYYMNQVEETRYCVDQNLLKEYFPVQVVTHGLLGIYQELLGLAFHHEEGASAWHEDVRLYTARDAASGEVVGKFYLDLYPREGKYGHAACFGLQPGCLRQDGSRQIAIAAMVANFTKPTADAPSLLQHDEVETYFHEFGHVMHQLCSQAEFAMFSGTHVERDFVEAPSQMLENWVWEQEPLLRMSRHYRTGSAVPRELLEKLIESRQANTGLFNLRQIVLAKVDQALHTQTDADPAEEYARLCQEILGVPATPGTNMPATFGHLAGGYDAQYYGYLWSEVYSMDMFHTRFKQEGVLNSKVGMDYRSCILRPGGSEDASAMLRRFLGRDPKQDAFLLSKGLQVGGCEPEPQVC

`O=S(=O)(F)Cc1ccccc1` [PMSF, phenylmethylsulfonyl fluoride]: the “% Activity Remaining” value in assay [1] (reagent conc. 7.0 mM, 45 min at 4° C.) is given as 100%. `CC(C)CC(=O)N[C@H](C(=O)N[C@H](C(=O)N[C@@H](CC(C)C)[C@@H](O)CC(=O)N[C@@H](C)C(=O)N[C@@H](CC(C)C)[C@@H](O)CC(=O)O)C(C)C)C(C)C` [Pepstatin A] (Isovaleryl-VV[Sta]A[Sta]-OH): in assay [1] (45 min at 4° C.), the remaining activity at 150 µM was found to be 100%.

With `CC(C)CC(NC(=O)C1OC1C(=O)O)C(=O)NCCCCN=C(N)N` (stereo not shown) [E-64], in assay [1], the “effect on metalloprotease activity (in words)” value is “less”. The figures for the remaining activity at 140 µM in assay [1] (incubated 15 min (b)) and in assay [1] (incubated 30 min (c)) were 57.5% and 27.3%, respectively.

For the molecule `CCN1C(=O)C=CC1=O` [N-ethylmaleimide], the “effect on metalloprotease activity (in words)” value in assay [1] is recorded as “strong inhibition”. Moreover, the remaining activity at 5000 µM in assay [1] (45 min at 4° C.) turned out to be 7.9%. Consider `O=C(O)c1cc[c]([Hg][OH])cc1` [Hydroxymercurybenzoate, hydroxymercurybenzoate], for which, in assay [1], the “effect on metalloprotease activity (in words)” value is “strong inhibition”. Also, the “% Activity Remaining” value in assay [1] (reagent conc. 1.6 mM, 45 min at 4° C.) came out at 0%. For the same molecule, the “reversal of inhibition by the reducing agent (DTT)” value in assay [1] (stoichiometrically increasing concentrations of DTT) is reported as “readily reversed”. With `O=C(N[C@@H](Cc1ccccc1)C(=O)N[C@@H](Cc1ccccc1)C(=O)CF)OCc1ccccc1` [Z-Phe-Phe-CH2F] (Cbz-Phe-Phe-CH2F), in assay [1] (45 min at 4° C.), the remaining activity at 200 µM was found to be 82.7%. On to albumin, for which the “effect on cleavage of 125I-P1 by the serine AD proteolytic factor (in words)” value (from here on “effect on cleavage of 125I-P1”) in assay [2] was “did not influence the activity”. `C[C@H](NC(=O)[C@H](C)NC(CCc1ccccc1)C(=O)O)C(=O)N[C@@H](Cc1ccccc1)C(=O)Nc1ccc(C(=O)O)cc1` (stereo partly drawn) [CPP-Ala-Ala-Phe-pAB]: the “effect on metalloprotease activity (in words)” value in assay [1] is listed as “strongly inhibited”. Also, the remaining activity at 15 µM in assay [1] (reagent conc. 0.015 mM, 45 min at 4° C.) was 47.5%. In addition, in assay [1] (45 min at 4° C.), the remaining activity at 150 µM was 28%.

On to `CC(C)C[C@H](NP(=O)(O)O[C@@H]1O[C@@H](C)[C@H](O)[C@@H](O)[C@H]1O)C(=O)N[C@@H](Cc1c[nH]c2ccccc12)C(=O)O` [Phosphoramidon], for which the remaining activity at 1000 µM in assay [1] (setting [3]) was found to be 89.5%. On to `NC(=O)CI` [Iodoacetamide], for which, in assay [1] (setting [4]), the inhibition at 8000 µM was 34%. In assay [1] (reagent conc. 8.0 mM, 37° C. for 30 min), the remaining activity at 8000 µM is 66%. On to `O=C(O)CN(CCOCCOCCN(CC(=O)O)CC(=O)O)CC(=O)O` [EGTA], for which the “effect on cleavage of 125I-P1” value in assay [2] was “prevent cleavage”. In assay [1], the “effect on metalloprotease activity (in words)” value is on record as “Strong inhibition”. The same molecule returned a remaining activity at 7500 µM in assay [1] (reagent conc. 7.5 mM, 45 min at 4° C.) of 0%.

Consider `CC(C)C[C@H](NC(=O)[C@@H](O)[C@H](N)Cc1ccccc1)C(=O)O` [Bestatin], for which the remaining activity at 2 µM in assay [1] (reagent conc. 0.002 mM, 45 min at 4° C.) is 60%. For the molecule `O[C@H](CS)[C@H](O)CS` (racemic) [Dithiothreitol, dithiothreitol], the “effect on metalloprotease activity (in words)” value in assay [1] was “required for the activity”. The “% Activity Remaining” value in assay [1] (reagent conc. 0.0 mM) is reported as 0%. The molecule also showed a remaining activity at 1000 µM in assay [1] (setting [3]) of 100%. Further, the remaining activity at 2500 µM in assay [1] (reagent conc. 2.5 mM) was 70.8%. The same molecule came in with a remaining activity at 5000 µM in assay [1] (45 min at 4° C.) of 25.5%. For `c1cnc2c(c1)ccc1cccnc12` [1,10 phenanthroline], the “effect on metalloprotease activity (in words)” value in assay [1] was “Strong inhibition”. Further, the remaining activity at 4000 µM in assay [1] (reagent conc. 4.0 mM, 45 min at 4° C.) was 0%. `CC(=O)N[C@@H](CC(C)C)C(=O)N[C@@H](CC(C)C)C(=O)N[C@H](C=O)CCCNC(=N)N` [Leupeptin]: the inhibition at 200 µM in assay [1] (setting [4]) came to 36.3%. The molecule also showed a remaining activity at 200 µM in assay [1] (45 min at 4° C.) of 63.7%. In the case of Aprotinin, the “% Activity Remaining” value in assay [1] (reagent conc. 0.03 mM, 45 min at 4° C.) was 100%. On to `CC(C)CC(C(=O)NO)C(=O)N[C@@H](C)C(=O)NCC(N)=O` (stereo partly shown) [ZINCOV], for which the “effect on metalloprotease activity (in words)” value in assay [1] is listed as “Strong inhibition”. Moreover, the “% Activity Remaining” value in assay [1] (setting [3]) was found to be 42.4%.

B1: protease nexin 1: protease nexin 1 (protein, UniProt P07093 20-398, looked up)
Glia-derived nexin: SHFNPLSLEELGSNTGIQVFNQIVKSRPHDNIVISPHGIASVLGMLQLGADGRTKKQLAMVMRYGVNGVGKILKKINKAIVSKKNKDIVTVANAVFVKNASEIEVPFVTRNKDVFQCEVRNVNFEDPASACDSINAWVKNETRDMIDNLLSPDLIDGVLTRLVLVNAVYFKGLWKSRFQPENTKKRTFVAADGKSYQVPMLAQLSVFRCGSTSAPNDLWYNFIELPYHGESISMLIALPTESSTPLSAIIPHISTKTIDSWMSIMVPKRVQVILPKFTAVAQTDLKEPLKVLGITDMFDSSKANFAKITTGSENLHVSHILQKAKIEVSEDGTKASAATTAILIARSSPPWFIVDRPFLFFIRHNPTGAVLFMGQINKP
Take B1: the “effect on cleavage of 125I-P1” value in assay [2] is recorded as “did not influence the activity”.

B2: ACT: serine protease inhibitor α1-antichymotrypsin (Calbiochem) (protein, UniProt P01011 24-423, looked up)
Alpha-1-antichymotrypsin: HPNSPLDEENLTQENQDRGTHVDLGLASANVDFAFSLYKQLVLKAPDKNVIFSPLSISTALAFLSLGAHNTTLTEILKGLKFNLTETSEAEIHQSFQHLLRTLNQSSDELQLSMGNAMFVKEQLSLLDRFTEDAKRLYGSEAFATDFQDSAAAKKLINDYVKNGTRGKITDLIKDLDSQTMMVLVNYIFFKAKWEMPFDPQDTHQSRFYLSKKKWVMVPMMSLHHLTIPYFRDEELSCTVVELKYTGNASALFILPDQDKMEEVEAMLLPETLKRWRDSLEFREIGELYLPKFSISRDYNLNDILLQLGIEEAFTSKADLSGITGARNLAVSQVVHKAVLDVFEEGTEASAATAVKITLLSALVETRTIVRFNRPFLMIIVPTDTQNIFFMSKVTNPKQA
Regarding B2, in assay [2], the “effect on cleavage of 125I-P1” value was “inhibited cleavage”.

B3: Soybean Trypsin Inhibitor: Soybean Trypsin Inhibitor, protease inhibitor tested in Table II (protein, UniProt P01070 25-205, looked up)
Trypsin inhibitor A: DFVLDNEGNPLENGGTYYILSDITAFGGIRAAPTGNERCPLTVVQSRNELDKGIGTIISSPYRIRFIAEGHPLSLKFDSFAVIMLCVGIPTEWSVVEDLPEGPAVKIGENKDAMDGWFRLERVSDDEFNNYKLVFCPQQAEDDKCGDIGISIDHDDGTRRLVVSKNKPLVVQFQKLDKESL
For B3, in assay [1] (reagent conc. 0.01 mM, 45 min at 4° C.), the “% Activity Remaining” value is 100%.
